# From patent US20140038920A1, “TFEB PHOSPHORYLATION INHIBITORS AND USES THEREOF” (FONDAZIONE TELETHON, priority 2011, published 2014)
# Columns and labels:
# ERK = assay: p-ERK levels in primary hepatocytes (FIG. 21A); format: cell-based, mouse; settings: primary hepatocytes treated overnight
# Source text: Subsequently, cells were lysed and protein extracts were immunoblotted with the indicated antibodies. […] Quantitative PCR (qPCR) of TFEB target genes in primary hepatocytes from control (flox/flox) and Tcfeb−/− (flox/flox; alb-Cre) mice. […] The expression levels are shown as % increased expression of the treated versus the corresponding untreated samples. Values represent means±s.d. of three independent hepatocyte preparations (three mice/genotype). Student's t-test (two tailed) *P-value ≦0.05.
# [1] = test system: glycosaminoglycan (GAG) accumulation in MSD NSCs; assay: Alcian blue staining of GAGs in differentiated NSCs from MSD mice (FIG. 22); format: cell-based, mouse; settings: glia-differentiated MSD NSCs, 10 nM, 24 hours, versus DMSO
# Method: After 24 hours, the GAG content was determined by alcian blue (AB) staining. Both torins were able to reduce GAG staining in MSD treated cells as compared to DMSO treated cells.
# Neuronal progenitor cells were isolated from cortices of WT and MSD pups (P0) by tissue homogenization using the neural tissue dissociation kit and separation using magnetic sorting of cells expressing the stem cell marker prominin-1 (Miltenyi Biotec Srl). Neuronal progenitor cells were maintained in ESGRO complete medium (Hyclone) in the presence of EGF and FGF2 growth factors (Prepotech). Where indicated, neural stem cells (NSCs) were differentiated by removing growth factors and incubate in ESGRO medium containing 2% of serum for at least 48 h.
# Neuronal progenitor cells were isolated from cortices of WT and MSD pups (P0) by using standard protocols. Neuronal stem cells (NSCs) were fixed in Methacarn (60% Methanol; 10% Acetic Acid; 30% Chloroform) for 15 min at RT. After washing the cells were stained for 3 hours in 1% alcian blue pH 2.5, rinsed in 0.3% acetic acid and water and mounted in 100% for visualization.
# TFEB S142 = TFEB S142 phosphorylation with p-S142 phospho-antibody in HeLa cells (FIG. 20A); format: cell-based; settings: starved cells supplemented with normal media with inhibitor
# Method: FIG. 20 mTORC1 phosphorylates TFEB at serine 142 (S142). […] HeLa cells were treated as indicated and total and nuclear extracts were probed with a TFEB p-S142 phospho-antibody and with anti-FLAG antibody. (B) Schematic representation of TFEB protein structure with the predicted mTORC1 phosphorylation sites and their conservation among vertebrates. Numbering is according to human isoform 1. (C) Sequence conservation scores of the phosphorylation sites and quantitative agreement between mTOR consensus motif and the sequence around the phosphorylation sites of TFEB. (D) S142 and S211 regulate TFEB localization. Flag immunostaining of TFEB subcellular localization in HeLa cells expressing serine-to-alanine mutated versions of TFEB-3×Flag. Nuclei were stained with DAPI. Values are means of five fields containing at least 50 transfected cells. Student's t-test (unpaired) ***P<0.001. Scale bars represent […].
# The mouse anti-TFEB monoclonal antibody was purchased from My Biosource catalogue No. MBS 120432. To generate anti-pS142 specific antibodies, rabbits were immunized with the following peptide coupled to KLH: AGNSAPN{pSer}[…]. Following the fourth immunization, rabbits were sacrificed and the serum was collected. Non-phosphospecific antibodies were depleted from the serum by circulation through a column containing the nonphosphorylated antigene. […]
# TFEB = TFEB nuclear localization in starved HeLa cells overexpressing TFEB, re-stimulated with media plus supplements or inhibitors (nuclear fractionation, Flag blot, immunofluorescence); format: cell-based; settings: starved cells stimulated with normal medium supplemented with kinase inhibitor (FIG. 2g, 11b)
# Source text: (A) Scatter Plot graphs displaying the logarithmic value of the fold change differences in the relative expression levels of 51 autophagy-related genes in HeLa cells cultured in different conditions. X-axis=control group. Y-axis=treated group. Circles represent genes with increased (red) or decreased (green) fold change. Comparisons were as indicated. (B) Chromatin immunoprecipitation (ChIP) analysis. […] Values were normalized to the input and plotted as relative enrichment over a mock control. Experiments were performed in triplicate. (C) qPCR analysis of TFEB-target gene expression in normal, starved, and in TFEB-siRNA starved cells. GAPDH and HPRT represents housekeeping genes, while ATG10, ATG9A and ATG4D represent control genes (non-TFEB target genes). (D-F) HeLa cells stably overexpressing TFEB were left untreated or nutrient starved for 4 h. (D) Five fields containing 50-100 cells/each were analyzed for TFEB nuclear localization. […] (E) Cells were subjected to nuclear/cytosolic fractionation and blotted with Flag antibody. H3 and tubulin were used as nuclear and cytosolic markers, respectively. (F) Nuclear fractions were blotted with Flag and H3 (loading control) antibodies. (G) Western blot analysis of Flag, tubulin and H3 in nuclear extracts prepared from normal, starved and starved/stimulated with normal media cells for 1 h (normal) or pretreated with AP-2 (AKT inhibitor), Rapamycin (mTOR inhibitor) and U0126 (MEK inhibitor) 1 h prior to media stimulation. Total extracts were used to verify the efficiency of the inhibitors. […] Starvation was performed where indicated. (All error bars represent standard deviations. T-test (unpaired) p value (*)<0.05, (**)<0.01)
# Cytosolic and nuclear fractions were subjected to Flag immunoblotting. […] Error bars represent standard deviations.
# Cells were seeded at 50% of confluence in 6 well dishes and serum starved overnight (ON). Normal medium was added the following day either in presence of DMSO or kinase inhibitors. Subcellular fractionation was carried out as previously reported.
# To identify the mechanism of starvation-induced activation of TFEB, the applicants analyzed its subcellular localization and post-translational modifications in starved cells.
Compound,levels of p-ERK (ERK),alcian blue-stained GAGs [1],nutrient-induced S142 phosphorylation of TFEB (TFEB S142),TFEB nuclear localization (TFEB)
CCC(=O)N1CCN(c2ccc(-n3c(=O)ccc4cnc5ccc(-c6cnc7ccccc7c6)cc5c43)cc2C(F)(F)F)CC1 [TORIN 1],unaffected,striking reduction,clearly blunted nutrient-induced S142 phosphorylation,–
CO[C@H]1C[C@@H]2CC[C@@H](C)[C@@](O)(O2)C(=O)C(=O)N2CCCC[C@H]2C(=O)O[C@H]([C@H](C)C[C@@H]2CC[C@@H](O)[C@H](OC)C2)CC(=O)[C@H](C)/C=C(\C)[C@@H](O)[C@@H](OC)C(=O)[C@H](C)C[C@H](C)/C=C/C=C/C=C/1C [RAPAMYCIN],–,–,did not,no effect
